In paper PMC8954547, “Nonpeptidic Z360-Analogs Tagged with Trivalent Radiometals as Anti-CCK2R Cancer Theranostic Agents: A Preclinical Study” (Pharmaceutics, 2022):

Columns and labels:
HEK293-CCK2i4svR cells = assay: Radioligand uptake and internalization in HEK293-CCK2i4svR cells; type: cell-based, human
Protocol: A day before the experiment, HEK293-CCK2i4svR cells were seeded in six-well plates. The next day, cells were rinsed with ice-cold internalization medium (IM: DMEM Glutamax-I, supplemented by 1% (v/v) FBS) and then the fresh medium was added (1.2 mL) at 37 °C. A further portion of IM (150 µL) was added in the upper well-row, and DG2 solution in IM (150 µL) was added in the lower row (to a final concentration of 1 μM; non-specific series). Each of the test radioligands, [^67Ga]Ga/[^111In]In/[^177Lu]Lu-GAS1/3 and [^67Ga]Ga/[^111In]In-GAS2, was finally added (250 fmol total conjugates in 150 μL 0.5% BSA-PBS) in all the wells and the plates were incubated at for 1 h at 37 °C in an Incubator-Orbital Shaker unit (MPM Instr. SrI, Bernareggio, MI, Italy); [^111In]In-GAS1/2/3 were incubated for 15 min, 30 min, 1 h and 2 h. At the predetermined time points, the plates were placed on ice, the medium was collected, and the plates were rinsed with 0.5% BSA-PBS (1 mL). Cells were subsequently treated with an acid-wash solution (2 × 600 µL; 50 mM glycine buffer pH 2.8, 0.1 M NaCl) and the fractions collected (membrane-bound). After briefly washing with 0.5% BSA-PBS (1 mL), the cells were lysed with 1 N NaOH (2 × 600 µL), and the fractions were collected (internalized). The radioactivity content of collected fractions was counted in the gamma counter, and the percentage of internalized and membrane-bound fractions per time point were calculated with Microsoft Excel. Specific internalized and membrane-bound counts were determined by subtracting the respective non-specific (in the presence of 1 μM DG2) from the respective total counts. Results represent specific internalized/membrane bound ± SD of total added radioactivity per well from three experiments performed in triplicate.

[1] = system: SCID mice bearing twin HEK293-CCK2i4svR and wtHEK293 tumors; assay: Biodistribution in SCID mice bearing twin HEK293-CCK2i4svR and wtHEK293 xenografts; type: in vivo
Protocol: Inocula containing a suspension of freshly harvested HEK293-CCK2i4svR/wtHEK293 cells (150 μL, 1.8 × 10^7/1.4 × 10^7 cells, respectively, in normal saline) were subcutaneously (sc) injected in the right and left flanks of male SCID mice (24.5 ± 2.3 g body weight, six weeks of age on arrival day, NCSR “Demokritos” Animal House Facility). Well-palpable tumors (0.42 ± 0.37/0.25 ± […], respectively) were grown at the inoculation site 3–4 weeks later, and biodistribution was conducted. On the day of biodistribution, animals were divided into groups of four and received the radioligand through the tail vein as a bolus (100 μL, containing each of: i. 78–91 kBq [^67Ga]GAS1/2/3 corresponding to 7–17 pmol GAS1/2/3; ii. 74–92 kBq [^111In]GAS1/2/3 corresponding to 20–25 pmol GAS1/2/3; iii. 730 kBq [^177Lu]Lu-GAS1/3 corresponding to 40 pmol GAS1/3, in-vehicle: saline/EtOH 9/1 v/v). Animals were euthanized at predetermined time intervals depending upon the radionuclide applied (for [^67Ga]Ga-GAS1/2/3: 1, 4 and 24 h pi; for [^111In]In-GAS1/2/3: 4 and 24 h pi–two extra groups of mice receiving gelofusine together with [^111In]In-GAS1/2 at 4 and 24 h pi were included; and for [^177Lu]Lu-GAS1/3: 4, 24, 48, 72 and 96 h pi). Mice were dissected, and blood samples, organs of interest and tumors were rapidly collected, weighted and counted in the gamma counter. Biodistribution data was calculated as the percentage of the administered dose per gram tissue (%IA/g) with the aid of suitable standards of the administered dose and the Microsoft Excel program. Results are presented as mean % IA/g values ± SD, n = 4 per time point, as determined by the PRISM^TM 6.0 GraphPad software (San Diego, CA, USA).

[2] = Radioligand stability in mice (radio-HPLC of blood and urine); type: in vivo; conditions: mean ± SD
Protocol: The formation of radiometabolites which can be detected in the blood was tested in blood samples collected 5 min post-injection (pi) of each of the radioligands [^67Ga]Ga/[^111In]In/[^177Lu]Lu-GAS1/3 and [^67Ga]Ga/[^111In]In-GAS2. For this study, in-house male Swiss albino mice (body weight: 30 ± 5 g, provided by the NCSR “Demokritos” Animal House) were used in groups of three. The animals received, through the tail vein, a 100-μL bolus containing each radioligand tested (2.5–3 nmol of the total conjugate in vehicle: saline/EtOH 9/1 v/v, corresponding to: up to 11 MBq for In-111, up to 13 MBq for Ga-67 and up to 74 MBq for Lu-177). Mice were euthanized, and blood was collected directly from the heart using a prechilled penicillin syringe and transferred in a prechilled EDTA-containing Eppendorf Protein LoBind® tube on ice (40 µL, 50 mM Na2EDTA solution). After centrifugation (10 min, 2000× g/4 °C, in a Hettich, Universal 320R, centrifuge), the blood plasma was collected, mixed with chilled MeCN in a 1/1 v/v ratio and centrifuged again (10 min, 15,000× g/4 °C). Supernatants were collected and concentrated to a small volume (≈50–100 μL) under a gentle N2-flux at 40 °C. They were then diluted with physiological saline (≈400 μL) and filtered through a Millex GV filter (0.22 μm, 13 mm Ø, Millipore, Milford, CT, USA). Aliquots of the filtrate were analyzed by radio-RP-HPLC using a Waters Symmetry Shield RP18 cartridge column (5 μm, 3.9 mm × 20 mm) eluted at a flow rate of 1.0 mL/min with the following gradient: 100% A/0% B to 55% A/45% B in 45 min; A = 0.1% aqueous TFA (v/v) and B = MeCN (system 2). The elution time (tR) of each parent radioligand was determined by coinjection of blood samples with an aliquot of the labeling solution on the HPLC column. Results were calculated as the average percentage of intact radioligand ± SD derived from three independent experiments.
Following the same injection protocol, radioligands were administered in additional groups of mice, but this time animals were euthanized 30 min pi. The urine was immediately collected from the bladder using a prechilled syringe and transferred as before in a prechilled EDTA-containing Eppendorf Protein LoBind® centrifuge tube on ice (40 µL, 50 mM Na2EDTA solution) and 0.1 mL of physiological saline. Urine proteins were precipitated by adding chilled MeCN in a 1/1 v/v ratio followed by a 10 min centrifugation step (15,000× g/4 °C). The supernatant was then collected and treated following the blood sample workup procedure. Aliquots of the Millex-GV filtrate (containing >90% of total urine activity) were analyzed by radio-HPLC, adopting the aforementioned conditions. Results were calculated as the average percentage of intact radioligand ± SD derived from three independent experiments.

In the case of `CC(C)(C)C(=O)CN1C(=O)[C@H](NC(=O)Nc2cccc(C(=O)NCCOCCOCCOCCNC(=O)[C@H](CCC(=O)O)NC(=O)CCC(C(=O)[O-])N3CCN(CC(=O)[O-])CCN(CC(=O)[O-])CC3)c2)CN(C2CCCCC2)c2ccccc21.[67Ga+3]` (stereo in doubt) [[^67Ga]Ga-GAS2], the “Internalized to membrane-bound ratio” value (HEK293-CCK2i4svR cells) is reported as 0.9, the “Cell uptake (internalized + membrane-bound)” value (HEK293-CCK2i4svR cells; 1 h 37 °C, specific, of total added activity) is reported as 7.32 ± 0.57% and the “Biodistribution, Blood” value ([1]; 1 h pi) is reported as 0.86 ± 0.08 %IA/g. For the same compound, the “Biodistribution, CCK2i4svR(+) Tumor” value ([1]; 1 h pi) was 4.06 ± 0.07 %IA/g, the “Biodistribution, CCK2i4svR(-) Tumor” value ([1]; 1 h pi) was 0.48 ± 0.03 %IA/g and the “Biodistribution, Femur” value ([1]; 1 h pi) was 0.24 ± 0.03 %IA/g. The “Biodistribution, Heart” value ([1]; 1 h pi) was 0.27 ± 0.03 %IA/g, the “Biodistribution, Intestines” value ([1]; 1 h pi) was over 25 %IA/g and the “Biodistribution, Kidneys” value ([1]; 1 h pi) was 1.48 ± 0.18 %IA/g. For the same compound, the “Biodistribution, Liver” value ([1]; 1 h pi) was 5.51 ± 2.03 %IA/g, the “Biodistribution, Lungs” value ([1]; 1 h pi) was 0.80 ± 0.09 %IA/g and the “Biodistribution, Muscle” value ([1]; 1 h pi) was 0.12 ± 0.02 %IA/g. For the same compound, the “Biodistribution, Pancreas” value ([1]; 1 h pi) was 0.37 ± 0.05 %IA/g, the “Biodistribution, Spleen” value ([1]; 1 h pi) was 0.52 ± 0.06 %IA/g and the “Biodistribution, Stomach” value ([1]; 1 h pi) was 0.32 ± 0.14 %IA/g. For the same compound, the “Biodistribution, Intestines” value ([1]; 1 h pi, listed as [67Ga]Ga-GAS2) was 25.26 ± 2.90 %IA/g, the “Biodistribution, Blood” value ([1]; 4 h pi) was 0.19 ± 0.06 %IA/g and the “Biodistribution, CCK2i4svR(+) Tumor” value ([1]; 4 h pi) was 1.53 ± 0.26 %IA/g. The “Biodistribution, CCK2i4svR(-) Tumor” value ([1]; 4 h pi) was 0.19 ± 0.08 %IA/g, the “Biodistribution, Femur” value ([1]; 4 h pi) was 0.13 ± 0.03 %IA/g and the “Biodistribution, Heart” value ([1]; 4 h pi) was 0.10 ± 0.03 %IA/g. The “Biodistribution, Intestines” value ([1]; 4 h pi) was over 25 %IA/g, the “Biodistribution, Kidneys” value ([1]; 4 h pi) was 0.39 ± 0.11 %IA/g and the “Biodistribution, Liver” value ([1]; 4 h pi) was 2.64 ± 0.85 %IA/g. For the same compound, the “Biodistribution, Muscle” value ([1]; 4 h pi) was 0.04 ± 0.01 %IA/g, the “Biodistribution, Pancreas” value ([1]; 4 h pi) was 0.08 ± 0.05 %IA/g and the “Biodistribution, Spleen” value ([1]; 4 h pi) was 0.55 ± 0.15 %IA/g. For the same compound, the “Biodistribution, Stomach” value ([1]; 4 h pi) was 0.14 ± 0.06 %IA/g, the “Biodistribution, Intestines” value ([1]; 4 h pi, listed as [67Ga]Ga-GAS2) was 26.38 ± 11.89 %IA/g and the “Biodistribution, Blood” value ([1]; 24 h pi) was 0.05 ± 0.00 %IA/g. For the same compound, the “Biodistribution, CCK2i4svR(+) Tumor” value ([1]; 24 h pi) was 0.24 ± 0.03 %IA/g, the “Biodistribution, CCK2i4svR(-) Tumor” value ([1]; 24 h pi) was 0.08 ± 0.00 %IA/g and the “Biodistribution, Femur” value ([1]; 24 h pi) was 0.10 ± 0.03 %IA/g. For the same compound, the “Biodistribution, Heart” value ([1]; 24 h pi) was 0.04 ± 0.01 %IA/g, the “Biodistribution, Intestines” value ([1]; 24 h pi) was 0.31 ± 0.32 %IA/g and the “Biodistribution, Kidneys” value ([1]; 24 h pi) was 0.06 ± 0.01 %IA/g. For the same compound, the “Biodistribution, Liver” value ([1]; 24 h pi) was 0.78 ± 0.17 %IA/g, the “Biodistribution, Lungs” value ([1]; 24 h pi) was 0.15 ± 0.02 %IA/g and the “Biodistribution, Muscle” value ([1]; 24 h pi) was 0.02 ± 0.00 %IA/g. For the same compound, the “Biodistribution, Pancreas” value ([1]; 24 h pi) was 0.03 ± 0.00 %IA/g, the “Biodistribution, Spleen” value ([1]; 24 h pi) was 0.35 ± 0.02 %IA/g and the “Biodistribution, Stomach” value ([1]; 24 h pi) was 0.06 ± 0.02 %IA/g. For the same compound, the “Background clearance / excretion route” value ([1]; mouse, in vivo) was “high hepatobiliary excretion”, the “Intact radioligand in blood” value ([2]; mice blood collected 5 min pi) was 96.3 ± 3.7 (3) % and the “Intact radioligand in urine” value ([2]; mice urine collected 30 min pi) was 81.6 ± 1.5 (3) %.
